“And” between values parts separate entries of the source, which are not always exact repeats. Equal entries are not always repeated.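 Tested at 5 concentrations; 48 h exposure; 96-well plates; endpoints linearly interpolated, else capped at highest concentration. Here, GI50 denotes the concentration required for 50% inhibition of growth. TGI denotes the concentration required for complete inhibition of growth.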
Key:
Assay in all cases: inhibition of tumour cell growth, NCI panel, 48 h
[1] = tested on: 786-0 renal
[2] = tested on: RXF 393 renal
[3] = tested on: PC-3 prostate
[4] = tested on: SW-620 colon
[5] = tested on: SNB-19 CNS
[6] = tested on: OVCAR-5 ovarian
[7] = tested on: RPMI-8226 leukemia
[8] = tested on: NCI/ADR-RES ovarian

SMILES: Cc1cnc(Nc2ccc(OCCN3CCCC3)cc2)nc1Nc1cccc(S(=O)(=O)NC(C)(C)C)c1
- GI50 [1]: 0.197 µM and 1.01 µM
- TGI [1]: 3.95 µM and 2.86 µM
- GI50 [2]: 0.0955 µM and 0.518 µM
- TGI [2]: 0.385 µM and 1.78 µM
- GI50 [3]: 0.383 µM and 1.55 µM
- TGI [3]: > 51 µM
- GI50 [4]: 0.228 µM and 0.946 µM
- TGI [4]: 3.54 µM and > 7.42 µM
- GI50 [5]: 2.66 µM and 3.4 µM
- TGI [5]: 15.6 µM and > 10 µM
- GI50 [6]: 0.151 µM and 0.928 µM
- TGI [6]: 4.51 µM and > 10 µM
- GI50 [7]: 1.23 µM and 1.09 µM
- TGI [7]: 6.51 µM and > 6.61 µM
- GI50 [8]: 7.01 µM and > 7.11 µM
- TGI [8]: 26.6 µM and > 10 µM

SMILES: COc1cc2c3c(c1OC)C1(C=CC(=O)C=C1)CC3NCC2 (stereo not given)
- TGI [1]: > 100 µM
- TGI [2]: > 100 µM
- TGI [3]: > 100 µM
- TGI [4]: > 100 µM
- TGI [5]: > 100 µM
- TGI [6]: > 100 µM
- TGI [7]: > 100 µM
- TGI [8]: > 100 µM

SMILES: CC(=O)c1cc(-c2ccccc2N)n(-c2ccc3c(c2)OCO3)c1C
- GI50 [1]: 0.388 µM
- TGI [1]: > 100 µM
- GI50 [2]: 0.208 µM
- TGI [2]: 0.681 µM
- GI50 [3]: 0.317 µM
- TGI [3]: > 100 µM
- GI50 [4]: 0.184 µM
- TGI [4]: > 100 µM
- GI50 [5]: 0.299 µM
- TGI [5]: > 100 µM
- GI50 [6]: 0.268 µM
- TGI [6]: > 100 µM
- GI50 [7]: 0.351 µM
- TGI [7]: 19.3 µM
- GI50 [8]: 0.211 µM

SMILES: COC(=O)c1ccc(CN2C(=O)C(Cl)=C(Nc3ccc(OC)c(Cl)c3)C2=O)cc1
- GI50 [1]: 36.2 µM
- TGI [1]: > 50 µM
- GI50 [2]: 11.2 µM
- TGI [2]: 26.1 µM
- GI50 [3]: 44.3 µM
- TGI [3]: > 50 µM
- GI50 [4]: > 50 µM
- TGI [4]: > 50 µM
- GI50 [5]: 5.93 µM
- TGI [5]: 22.3 µM
- GI50 [6]: 17.8 µM
- TGI [6]: 44.1 µM
- GI50 [7]: > 50 µM
- TGI [7]: > 50 µM
- GI50 [8]: 12.7 µM
- TGI [8]: 30.9 µM

SMILES: COc1cc2c(c(OC)c1OC)-c1ccc(O)c(=O)cc1[C@@H](NC(C)=O)CC2
- GI50 [1]: 12.3 µM
- TGI [1]: 62 µM and 92.1 µM
- GI50 [2]: 14.6 µM
- TGI [2]: > 100 µM
- GI50 [3]: 15.1 µM
- TGI [3]: > 100 µM
- GI50 [4]: 7 µM
- TGI [4]: > 100 µM and 82.5 µM
- GI50 [5]: 7.14 µM
- TGI [5]: > 100 µM
- GI50 [6]: 22.7 µM
- TGI [6]: > 100 µM
- GI50 [7]: 8.15 µM
- TGI [7]: > 100 µM and 36.9 µM
- GI50 [8]: 4.6 µM
- TGI [8]: > 100 µM and 36.2 µM

SMILES: CCCCN(CC)c1ncnc2ccc(Br)cc12
- GI50 [1]: 18.9 µM
- TGI [1]: 39.7 µM
- GI50 [2]: 8.45 µM
- TGI [2]: 24.7 µM
- GI50 [3]: 18.9 µM
- TGI [3]: 49.6 µM
- GI50 [5]: 35.2 µM
- TGI [5]: > 100 µM
- GI50 [6]: 20.5 µM
- TGI [6]: 49.8 µM
- GI50 [7]: 3.71 µM
- TGI [7]: 22.1 µM
- GI50 [8]: 15.6 µM
- TGI [8]: 39.8 µM

SMILES: COc1cc2c3c(ncc2c(OC)c1OC)-c1cc2c(cc1C3)OCO2
- GI50 [1]: 33.7 µM
- TGI [1]: > 100 µM
- GI50 [3]: > 100 µM
- TGI [3]: > 100 µM
- GI50 [4]: 66.4 µM
- TGI [4]: > 100 µM
- GI50 [5]: 26.1 µM
- TGI [5]: 55.6 µM
- GI50 [6]: 58.5 µM
- TGI [6]: > 100 µM
- GI50 [7]: 33.4 µM
- TGI [7]: > 100 µM
- GI50 [8]: 36.9 µM
- TGI [8]: > 100 µM

SMILES: CCOC(=O)Nc1nc2cc(OCC)ccc2s1
- GI50 [1]: > 100 µM
- TGI [1]: > 100 µM
- GI50 [2]: > 100 µM
- TGI [2]: > 100 µM
- GI50 [3]: > 100 µM
- TGI [3]: > 100 µM
- GI50 [4]: 4.74 µM
- TGI [4]: > 100 µM
- GI50 [5]: > 100 µM
- TGI [5]: > 100 µM
- GI50 [6]: > 100 µM
- TGI [6]: > 100 µM
- GI50 [7]: > 65.8 µM
- TGI [7]: > 100 µM
- GI50 [8]: 6.02 µM
- TGI [8]: > 100 µM

Reference: PubChem BioAssay (NCI)
